Results as given in PubChem BioAssay (NCI).
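Each compound was tested at five concentrations against cells in 96-well plates for 48 hours. TGI is the concentration that stops growth completely.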

How the values were obtained:
Experiment in all cases: growth of human tumour cells (NCI), 48 h
786-0 renal = system: 786-0 renal
A498 renal = system: A498 renal
A549 NSCLC = system: A549 NSCLC
ACHN renal = system: ACHN renal
CAKI-1 renal = system: CAKI-1 renal
COLO 205 colon = system: COLO 205 colon
DU-145 prostate = system: DU-145 prostate
EKVX NSCLC = system: EKVX NSCLC
HCC-2998 colon = system: HCC-2998 colon
HCT-116 colon = system: HCT-116 colon
HCT-15 colon = system: HCT-15 colon
HL-60(TB) leukemia = system: HL-60(TB) leukemia
HOP-62 NSCLC = system: HOP-62 NSCLC
HOP-92 NSCLC = system: HOP-92 NSCLC
HS 578T breast = system: HS 578T breast
HT29 colon = system: HT29 colon
IGROV1 ovarian = system: IGROV1 ovarian
K-562 leukemia = system: K-562 leukemia
KM12 colon = system: KM12 colon
LOX IMVI melanoma = system: LOX IMVI melanoma
M14 melanoma = system: M14 melanoma
MALME-3M melanoma = system: MALME-3M melanoma
MCF7 breast = system: MCF7 breast
MDA-MB-435 = system: MDA-MB-435
MDA-N = system: MDA-N
NCI-H226 lung = system: NCI-H226 lung
NCI-H23 lung = system: NCI-H23 lung
NCI-H460 lung = system: NCI-H460 lung
NCI-H522 lung = system: NCI-H522 lung
NCI/ADR-RES ovarian = system: NCI/ADR-RES ovarian
OVCAR-3 ovarian = system: OVCAR-3 ovarian
OVCAR-4 ovarian = system: OVCAR-4 ovarian
OVCAR-5 ovarian = system: OVCAR-5 ovarian
OVCAR-8 ovarian = system: OVCAR-8 ovarian
PC-3 prostate = system: PC-3 prostate
RXF 393 renal = system: RXF 393 renal
SF-268 CNS = system: SF-268 CNS
SF-295 CNS = system: SF-295 CNS
SF-539 CNS = system: SF-539 CNS
SK-MEL-2 melanoma = system: SK-MEL-2 melanoma
SK-MEL-28 melanoma = system: SK-MEL-28 melanoma
SK-MEL-5 melanoma = system: SK-MEL-5 melanoma
SK-OV-3 ovarian = system: SK-OV-3 ovarian
SN12C renal = system: SN12C renal
SNB-19 CNS = system: SNB-19 CNS
SNB-75 CNS = system: SNB-75 CNS
SR leukemia = system: SR leukemia
SW-620 colon = system: SW-620 colon
T-47D breast = system: T-47D breast
TK-10 renal = system: TK-10 renal
U251 CNS = system: U251 CNS
UACC-257 melanoma = system: UACC-257 melanoma
UACC-62 melanoma = system: UACC-62 melanoma
UO-31 renal = system: UO-31 renal

SMILES: C1CCCCC2(CCCCCCCCC3(CCC1)OCCO3)OCCO2
- TGI (786-0 renal): > 100 µM
- TGI (A498 renal): > 100 µM
- TGI (A549 NSCLC): > 100 µM
- TGI (ACHN renal): > 100 µM
- TGI (CAKI-1 renal): > 100 µM
- TGI (COLO 205 colon): > 100 µM
- TGI (DU-145 prostate): > 100 µM
- TGI (EKVX NSCLC): > 100 µM
- TGI (HCC-2998 colon): > 100 µM
- TGI (HCT-116 colon): > 100 µM
- TGI (HCT-15 colon): > 100 µM
- TGI (HL-60(TB) leukemia): > 100 µM
- TGI (HOP-62 NSCLC): > 100 µM
- TGI (HOP-92 NSCLC): > 100 µM
- TGI (HS 578T breast): > 100 µM
- TGI (HT29 colon): > 100 µM
- TGI (IGROV1 ovarian): > 100 µM
- TGI (K-562 leukemia): > 100 µM
- TGI (KM12 colon): > 100 µM
- TGI (LOX IMVI melanoma): > 100 µM
- TGI (M14 melanoma): > 100 µM
- TGI (MALME-3M melanoma): > 100 µM
- TGI (MCF7 breast): > 100 µM
- TGI (MDA-MB-435): > 100 µM
- TGI (MDA-N): > 100 µM
- TGI (NCI-H226 lung): > 100 µM
- TGI (NCI-H23 lung): > 100 µM
- TGI (NCI-H460 lung): > 100 µM
- TGI (NCI-H522 lung): > 100 µM
- TGI (NCI/ADR-RES ovarian): > 100 µM
- TGI (OVCAR-3 ovarian): > 100 µM
- TGI (OVCAR-4 ovarian): > 100 µM
- TGI (OVCAR-5 ovarian): > 100 µM
- TGI (OVCAR-8 ovarian): > 100 µM
- TGI (PC-3 prostate): > 100 µM
- TGI (RXF 393 renal): > 100 µM
- TGI (SF-268 CNS): > 100 µM
- TGI (SF-295 CNS): > 100 µM
- TGI (SF-539 CNS): > 100 µM
- TGI (SK-MEL-2 melanoma): > 100 µM
- TGI (SK-MEL-28 melanoma): > 100 µM
- TGI (SK-MEL-5 melanoma): > 100 µM
- TGI (SK-OV-3 ovarian): > 100 µM
- TGI (SN12C renal): > 100 µM
- TGI (SNB-19 CNS): > 100 µM
- TGI (SNB-75 CNS): > 100 µM
- TGI (SR leukemia): > 100 µM
- TGI (SW-620 colon): > 100 µM
- TGI (T-47D breast): > 100 µM
- TGI (TK-10 renal): > 100 µM
- TGI (U251 CNS): > 100 µM
- TGI (UACC-257 melanoma): > 100 µM
- TGI (UACC-62 melanoma): > 100 µM
- TGI (UO-31 renal): 3.64 µM
